Assay results reported in patent publication US8247230B2, “Plant stem cell line derived from cambium of herbaceous plant with storage root and method for isolating the same” (Unhwa Corporation, priority 2007, dated 2012).

Tests used:
[1] = tested on: ginseng root cambium-containing explant; assay: Cell induction in ginseng explant cultured in 2,4-D-containing medium; format: cell-based; settings: about 7-14 days after yellowing
Description: Meanwhile, in order to examine the influence of the hormone used in the induction medium, the explant was cultured in a 2,4-D-containing medium, which was not the cambium-derived cell line induction medium and has been used in the conventional culture of general ginsengs. […] In other words, it could be seen that, when 2,4-D was used, cell line was induced all other tissues, non-specifically to the cambium.
As shown in FIG. 3(b), when a general culture system containing 2,4-D was used in culture, cells were induced from various tissues (cortex, phloem, xylem, cambium, pith, etc.) present in the entire cross section, and the various cells were mixed with each other. Thus, the induced and proliferated cells had heterogeneity. […] Thus, the induced cells had homogeneity.

[2] = tested on: carrot root cambium-containing explant; assay: Cell line induction in carrot explant with varying kinds of auxins in induction medium; format: cell-based, Daucus carota L.; settings: for Cell line induction pattern (in words): auxin used in induction medium; for Reaction with respect to cambium: auxins at the same concentration in induction medium, after osmotic stress
Description: A carrot (Daucus carota L.) was prepared and surface-sterilized in the same manner as in Example 1-1. Then, the prepared sample was treated with osmotic stress in the same manner as in Example 1-2 and Example 1-3, and then a cambium-derived cell line was induced from the carrot.
Also, other plant hormone auxins, including IAA, IBA, picloram, 2,4-D, CPA and NAA, were used at the same concentration to examine the influence of the hormone used in induction medium.

[3] = tested on: true wild ginseng adventitious root cambium-derived cell line; assay: Proliferation of true wild ginseng adventitious root cambium-derived cell line in growth medium; format: cell-based; settings: hormone used instead of 2,4-D in medium 3
From the text: As a result, the cambium-derived homogeneous cell line having the ability to divide continually divided and proliferated, and thus after about 10-20 days of the culture, the cambium-derived homogeneous cell line having the ability to divide could be isolated. The true wild ginseng cambium-derived homogeneous cell line thus isolated was allowed to proliferate again by culturing it in the same medium. […] Meanwhile, in the true wild ginseng adventitious root cambium-containing explant in Example 2-1, the cell line was allowed to proliferate in the same manner as in Example 2, except that IBA was used instead of 2,4-D in Table 7.

[4] = tested on: ginseng cambium-derived cell line; assay: Proliferation of ginseng cambium-derived cell line in growth medium; format: cell-based; settings: growth medium containing IAA, not 2,4-D
Description: As shown in FIG. 3(a), after the explant was cultured in medium 2 of Example 1 to necrotize tissues other than the cambium, it was subcultured in medium 3. Medium 3 is an optimal medium for the proliferation of the cambium-derived cell line and is based on the basal salt composition shown in Table 6. When the cambium-derived homogeneous cell line having the ability to divide was cultured in medium 3, it continually divided and proliferated. After about 10-20 days of the culture, the cambium-derived cell line was isolated, and the isolated cell line was allowed to proliferate again in the same medium (medium 3).

MMP-1 = assay: Inhibition of MMP-1 expression caused by UV light (UVB) in NHF cells; format: cell-based, human; settings: 10 uM, 40 mJ UVB, 48 hours, No UV = 100, Control UV = 230
Description: When MMPs are increased due to exposure to UV light, the increased MMPs degrade skin collagen to form skin wrinkles. Thus, the following test was carried out in order to examine whether MMP-1 expression increased due to UV light is inhibited by an extract or culture medium of the true wild ginseng cambium-derived homogeneous cell line.
NHF (normal human fibroblast) cells used in the test were isolated from the fetal penis prepuce and cultured. The culture medium was prepared by adding 10% fetal bovine serum (FBS, Hyclone, Logan, Utah, USA), inactivated by heating at 56° C. for 30 minutes, 100 unit/ml of penicillin, 100 μg/ml of streptomycin and 300 μg/ml of glutamine to DMEM medium (Invitroge Gibco life tech. Vienna, Austriea). The cells were cultured in the medium in a 5% CO2 incubator at a temperature of 37° C. and a humidity of 95% and subcultured at 3-4-day intervals, immediately before the cells were fused with each other.
NHF(p6) cells were dispensed into a 12-well plate at a density of 75,000 cells/well and starved for 24 hours. Then, the cells were radiated with 40 mJ of UVB and treated with varying concentrations of each sample for 48 hours. Then, an experiment was carried out using a kit (Amersham, RPN 2610). As a positive control group, 10 μM retinoic acid was used. […]

SMILES	Cell line induction pattern (in words) [2]	Reaction with respect to cambium [2]	further results
O=C(O)COc1ccc(Cl)cc1Cl [2,4-D, 2,4-dichlorophenoxyacetic acid]	the cell line was induced throughout the whole explant rather than with respect to the cambium	−	Cell induction pattern (in words) [1]: cells were induced throughout the whole cross section
O=C(O)COc1ccc(Cl)cc1 [CPA]	the cell line was induced throughout the whole explant rather than with respect to the cambium	−	
O=C(O)Cc1c[nH]c2ccccc12 [IAA, indole-3-acetic acid]	the homogeneous cell line was induced with respect to the cambium		Proliferation in growth medium (in words) [3]: did not differentiate and showed a tendency to differentiate; Proliferation in growth medium (in words) [4]: did not proliferate and showed a tendency to differentiate
O=C(O)CCCc1c[nH]c2ccccc12 [IBA, indole-3-butyric acid]	the homogeneous cell line was induced with respect to the cambium		Proliferation in growth medium (in words) [3]: did not differentiate and proliferated
O=C(O)Cc1cccc2ccccc12 [NAA]	the cell line was induced throughout the whole explant rather than with respect to the cambium	−	Root induction with the passage of time (in words) ([2]; after about 4 weeks): a root was induced and differentiated in the cambium
Nc1c(Cl)c(Cl)nc(C(=O)O)c1Cl [Picloram, picloram]	the cell line was induced throughout the whole explant rather than with respect to the cambium	−	
CC1=C(/C=C/C(C)=C/C=C/C(C)=C/C(=O)O)C(C)(C)CCC1 [Retinoic acid, retinoic acid]			MMP-1 expression, % of control (MMP-1): 85 % of control
